Test results reported in the supplement of paper PMC11061612.

Tests used:
[1] = tested on: JHH-1 (Hepatocellular Carcinoma); test: Bliss excess, mean over the matrix (fraction); higher = more synergy
Procedure, shortened: (§1)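 Cell lines grown in DMEM/F12 or RPMI with 10% FBS were plated in 1536-well plates and held 24 hours at 37°C, 5% CO2 before 72 hours of exposure to two-drug dose matrices, with DMSO typically at 0.2%. CellTiter-Glo 2.0 luminescence gave viability, which was converted to inhibition. Vehicle wells were set to 0 and blank wells to 1. Combination Emax is the second-highest inhibition in the matrix, and Bliss excess is the observed combination effect minus the expected EA + EB − EA·EB, where EA and EB are the single-agent effects.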

[2] = tested on: OVTOKO (Ovarian Carcinoma); test: as above
Procedure, shortened: as §1

[3] = tested on: AsPC-1 (Pancreatic Carcinoma); test: combination Emax (second highest fraction inhibited in the dose matrix, 72 h); higher = more inhibition; extreme values may be limits of the assay
Procedure, shortened: as §1

[4] = tested on: Becker (Low Grade Glioma); test: as above
Procedure, shortened: as §1

[5] = tested on: CHL-1 (Melanoma); test: as above
Procedure, shortened: as §1

[6] = tested on: COLO-684 (Endometrial Carcinoma); test: as above
Procedure, shortened: as §1

[7] = tested on: Calu-6 (Non-Small Cell Lung Carcinoma); test: as above
Procedure, shortened: as §1

[8] = tested on: EB-3 (Burkitt's Lymphoma); test: as above
Procedure, shortened: as §1

[9] = tested on: FLO-1 (Esophageal Adenocarcinoma); test: as above
Procedure, shortened: as §1

[10] = tested on: HTC-C3 (Thyroid Gland Carcinoma); test: as above
Procedure, shortened: as §1

[11] = tested on: JHH-1 (Hepatocellular Carcinoma); test: as above
Procedure, shortened: as §1

[12] = tested on: KYM-1 (Rhabdomyosarcoma); test: as above
Procedure, shortened: as §1

[13] = tested on: KYSE-70 (Esophageal Squamous Cell Carcinoma); test: as above
Procedure, shortened: as §1

[14] = tested on: NCI-H1155 (Non-Small Cell Lung Carcinoma); test: as above
Procedure, shortened: as §1

[15] = tested on: NCI-H1563 (Lung Adenocarcinoma); test: as above
Procedure, shortened: as §1

[16] = tested on: NCI-H1623 (Lung Adenocarcinoma); test: as above
Procedure, shortened: as §1

[17] = tested on: NCI-H1755 (Lung Adenocarcinoma); test: as above
Procedure, shortened: as §1

[18] = tested on: OCI-AML5 (Acute Myeloid Leukemia); test: as above
Procedure, shortened: as §1

[19] = tested on: RMG-I (Ovarian Carcinoma); test: as above
Procedure, shortened: as §1

[20] = tested on: RPMI-8866 (Chronic Myelogenous Leukemia); test: as above
Procedure, shortened: as §1
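Wherever Bliss excess, mean over the matrix is given: after 72 h of two-drug dosing.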

Compound	Bliss excess [1]	Bliss excess [2]	combination Emax [3]	combination Emax [4]	combination Emax [5]	combination Emax [6]	combination Emax [7]	combination Emax [8]	combination Emax [9]	combination Emax [10]	combination Emax [11]	combination Emax [12]	combination Emax [13]	combination Emax [14]	combination Emax [15]	combination Emax [16]	combination Emax [17]	combination Emax [18]	combination Emax [19]	combination Emax [20]
CN(C)CCCOc1ccc(-c2ccc3ncc4c(c3c2)n(C2CCOCC2)c(=O)n4C)cn1 [AZD0156] + C=CCn1c(=O)c2cnc(Nc3ccc(N4CCN(C)CC4)cc3)nc2n1-c1cccc(C(C)(C)O)n1 [AZD1775] (first compound max 1 µM, partner max 1 µM)	-0.0501	-0.0255	0.317	0.177	0.623	0.688	0.722	0.736	0.805	0.351	0.463	0.355	0.538	0.342	0.367	0.311	0.749	0.95	0.291	0.965
CN(C)CCCOc1ccc(-c2ccc3ncc4c(c3c2)n(C2CCOCC2)c(=O)n4C)cn1 [AZD0156] + CCN(CCO)CCCOc1ccc2c(Nc3cc(CC(=O)Nc4cccc(F)c4)[nH]n3)ncnc2c1 [AZD2811] (first compound max 1 µM, 7x7, partner max 1 µM)	-0.0159	-0.0337	0.0981	0.0601	0.194	0.201	0.328	0.425	0.267	0.0862	0.108	0.0599	0.161	0.377	0.311	0.0312	0.475	0.963	0.093	0.61
CN(C)CCCOc1ccc(-c2ccc3ncc4c(c3c2)n(C2CCOCC2)c(=O)n4C)cn1 [AZD0156] + C[C@@H]1COCCN1C2=NC(=NC(=C2)C3(CC3)[S@](=N)(=O)C)C4=C5C=CNC5=NC=C4 [AZD6738] (first compound max 1 µM, 7x7, partner max 10 µM)	0.0102	0.0039	0.454	0.579	0.798	0.812	0.777	0.763	0.691	0.823	0.596	0.786	0.397	0.748	0.385	0.675	0.816	0.917	0.528	0.967
CN(C)CCCOc1ccc(-c2ccc3ncc4c(c3c2)n(C2CCOCC2)c(=O)n4C)cn1 [AZD0156] + O=C(c1cc(Cc2n[nH]c(=O)c3ccccc23)ccc1F)N1CCN(C(=O)C2CC2)CC1 [Olaparib] (first compound max 3 µM, partner max 3 µM)	0.0084	-0.0032	0.297	0.247	0.186	0.307	0.36	0.568	0.289	0.142	0.196	0.583	0.123	0.452	0.246	0.333	0.414	0.139	0.29	0.285
C=CCn1c(=O)c2cnc(Nc3ccc(N4CCN(C)CC4)cc3)nc2n1-c1cccc(C(C)(C)O)n1 [AZD1775] + C1CN(CCC1(C(=O)N[C@@H](CCO)C2=CC=C(C=C2)Cl)N)C3=NC=NC4=C3C=CN4 [Capivasertib] (first compound max 3 µM, partner max 3 µM)	-0.018	-0.0135	0.505	0.602	0.826	0.841	0.8	0.829	0.921	0.642	0.691	0.767	0.534	0.831	0.459	0.597	0.8	0.893	0.47	0.964
C=CCn1c(=O)c2cnc(Nc3ccc(N4CCN(C)CC4)cc3)nc2n1-c1cccc(C(C)(C)O)n1 [AZD1775] + C[C@@H]1COCCN1C2=NC(=NC(=C2)C3(CC3)[S@](=N)(=O)C)C4=C5C=CNC5=NC=C4 [AZD6738] (first compound max 1 µM, partner max 10 µM)	0.0194	-0.0308	0.475	0.678	0.84	0.851	0.808	0.855	0.924	0.882	0.642	0.837	0.656	0.864	0.446	0.74	0.899	0.981	0.686	0.989
